# Assay results as given in patent US10654847B2, “Substituted 2-(4-heterocyclylbenzyl)isoindolin-1-one analogs as positive allosteric modulators of the muscarinic acetylcholine receptor M1” (Vanderbilt University, priority 2011, dated 2020).
# Where two headings read alike, the source gives them in different places.
# Biological target: T1, mAChR M1 (UniProt P11229)
# T1 sequence (P11229 1-460): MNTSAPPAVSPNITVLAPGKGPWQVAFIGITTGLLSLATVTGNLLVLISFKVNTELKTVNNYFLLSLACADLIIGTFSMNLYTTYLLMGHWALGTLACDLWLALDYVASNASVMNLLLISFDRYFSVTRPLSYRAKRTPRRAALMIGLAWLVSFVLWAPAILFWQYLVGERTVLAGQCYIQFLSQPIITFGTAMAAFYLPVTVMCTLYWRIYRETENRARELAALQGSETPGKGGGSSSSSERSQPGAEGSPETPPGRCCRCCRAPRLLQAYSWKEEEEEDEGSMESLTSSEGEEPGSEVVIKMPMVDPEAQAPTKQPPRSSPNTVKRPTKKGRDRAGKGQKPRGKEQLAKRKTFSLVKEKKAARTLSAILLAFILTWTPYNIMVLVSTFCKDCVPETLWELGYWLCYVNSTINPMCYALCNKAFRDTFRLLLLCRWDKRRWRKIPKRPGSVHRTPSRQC
# Assay: mAChR M1 cell-based functional assay (calcium mobilization, potentiation of EC20 acetylcholine response)
# Conditions: for Emax (%): % ACh maximum at 30 μM, mAChR M1-expressing CHO-K1 cells, calcium flux; for pEC50 / EC50: positive allosteric modulation of EC20 ACh response, mAChR M1 CHO-K1 cells; for pEC50: <5 estimated where no plateau; for EC50: >10 μM estimated where no plateau
# Description: Chinese hamster ovary (CHO-K1) cells stably expressing rat (r)M1 were purchased from the American Type Culture Collection and cultured according to their indicated protocol. […] To make stable rM2, hM2, rM3, hM4, and rM4 cell lines for use in calcium mobilization assays, these cells also were stably transfected with a chimeric G-protein (Gqi5) (provided by B. R. Conklin, University of California, San Francisco) using Lipofectamine 2000. rM1, hM1, rM3, hM3, rM5, and hM5 cells were grown in Ham's F-12 medium containing 10% heat-inactivated fetal bovine serum (FBS), 20 mM HEPES, and 50 μg/mL G418 sulfate. rM2-Gqi5, hM2-Gqi5, and hM4-Gqi5 cells were grown in the same medium also containing 500 μg/mL Hygromycin B. Stable rM4-Gqi5 cells were grown in DMEM containing 10% heat-inactivated FBS, 20 mM HEPES, 400 μg/mL G418 sulfate, and 500 μg/mL Hygromycin B.
# For high throughput measurement of agonist-evoked increases in intracellular calcium, CHO-K1 cells stably expressing muscarinic receptors were plated in growth medium lacking G418 and hygromycin at 15,000 cells/20 μL/well in Greiner 384-well black-walled, tissue culture (TC)-treated, clear-bottom plates (VWR). Cells were incubated overnight at 37° C. and 5% CO2. […] Compound master plates were formatted in an 11 point CRC format (1:3 dilutions) in 100% DMSO with a starting concentration of 10 mM using the BRAVO liquid handler (Agilent). Test compound CRCs were then transferred to daughter plates (240 nL) using the Echo acoustic plate reformatter (Labcyte, Sunnyvale, Calif.) and then diluted into assay buffer (40 μL) to a 2× stock using a Thermo Fisher Combi (Thermo Fisher Scientific, Waltham, Mass.).
# Calcium flux was measured using the Functional Drug Screening System (FDSS) 6000 (Hamamatsu Corporation, Tokyo, Japan) as an increase in the fluorescent static ratio. Compounds were applied to cells (20 μL, 2×) using the automated system of the FDSS 6000 at 4 s into the 300 s protocol and the data were collected at 1 Hz. […] Agonist activity was analyzed as a concentration-dependent increase in calcium mobilization upon compound addition. Positive allosteric modulator activity was analyzed as a concentration-dependent increase in the EC20 acetylcholine response. Antagonist activity was analyzed as a concentration-dependent decrease in the EC80 acetylcholine response. Concentration-response curves were generated using a four-parameter logistical equation in XLfit curve fitting software (IDBS, Bridgewater, N.J.) for Excel (Microsoft, Redmond, Wash.) or Prism (GraphPad Software, Inc., San Diego, Calif.).
# The above described assay was also operated in a second mode where an appropriate fixed concentration of the present compounds were added to the cells after establishment of a fluorescence baseline for about 3 seconds, and the response in cells was measured. […] Data were reduced as described above and the EC50 values for the agonist in the presence of test compound were determined by nonlinear curve fitting. A decrease in the EC50 value of the agonist with increasing concentrations of the present compounds (a leftward shift of the agonist concentration-response curve) is an indication of the degree of muscarinic positive allosteric modulation at a given concentration of the present compound. An increase in the EC50 value of the agonist with increasing concentrations of the present compounds (a rightward shift of the agonist concentration response curve) is an indication of the degree of muscarinic antagonism at a given concentration of the present compound. The second mode also indicates whether the present compounds also affect the maximum response of the muscarinic receptor to agonists.
# The calcium mobilization assay was also used to determine “efficacy”.
SMILES,Emax (%),pEC50,EC50 (read-out: EC50) [nM],EC50 [nM]
O=C1c2cccnc2CN1Cc1ccc(-c2ccnc3ccccc23)cc1F [Example B45],44,5.43,3720,–
Cc1cc(-c2ccc(CN3Cc4ncccc4C3=O)c(F)c2)cnc1Cl [Example B46],33,5.99,1020,–
O=C1c2cccnc2CN1Cc1ccc(-c2cccnc2)cc1F [Example B47],54,5.22,6030,–
O=C1c2cccnc2CN1Cc1ccc(-c2ccc3ncccc3c2)cc1F [Example B48],65,6.08,832,–
O=C1c2cccnc2CN1Cc1ccc(-c2ccc3ccncc3c2)cc1F [Example B49],68,5.81,1550,–
COc1ccc(-c2ccc(CN3Cc4ncccc4C3=O)c(F)c2)cc1 [Example B50],34,6.01,977,–
Cn1cc2cc(-c3cc(F)c(CN4Cc5ncccc5C4=O)c(F)c3)ccc2n1 [Example B51],73,6.59,257,–
CN(C)c1ccc(-c2ccc(CN3Cc4ncccc4C3=O)c(F)c2)cc1 [Example B52],53,<5.00,> 10000,–
CN1CC=C(c2ccc(CN3Cc4ncccc4C3=O)c(F)c2)CC1 [Example B53],80,5.51,3090,–
Cn1cnc2ccc(-c3ccc(CN4Cc5ncccc5C4=O)c(F)c3)cc21 [Example B54],81,6.13,741,–
CN1CCc2cc(-c3ccc(CN4Cc5ncccc5C4=O)c(F)c3)ccc21 [Example B55],60,5.64,–,2290
Cn1cc2cc(-c3ccc(CN4Cc5ncncc5C4=O)c(F)c3)ccc2n1 [Example B56],80,6.40,398,–
O=C1c2cccnc2CN1Cc1ccc(-c2ccc3nccn3c2)cc1F [Example B57],69,5.68,2090,–
Cn1cc2cc(Nc3ccc(CN4Cc5ncccc5C4=O)c(F)c3)ccc2n1 [Example B58],66,5.43,3720,–
Cn1cc2cc(-c3ccc(CN4Cc5ncccc5C4=O)cc3)ccc2n1 [Example B59],56,6.30,501,–
Cn1ncc2ccc(-c3ccc(CN4Cc5cccnc5C4=O)c(F)c3)cc21 [Example B60],76,5.80,1590,–
Cn1ncc2cc(-c3ccc(CN4Cc5cccnc5C4=O)c(F)c3)ccc21 [Example B61],38,<5.00,> 10000,–
Cn1cc2c(-c3ccc(CN4Cc5cccnc5C4=O)c(F)c3)cccc2n1 [Example B62],72,6.07,851,–
Cc1cc(-c2ccc(CN3Cc4cccnc4C3=O)c(F)c2)cnc1Cl [Example B63],48,5.73,1860,–
O=C1c2ncccc2CN1Cc1ccc(-c2cccnc2)cc1F [Example B64],50,<5.00,> 10000,–
O=C1c2ncccc2CN1Cc1ccc(-c2ccncc2)cc1F [Example B65],56,<5.00,> 10000,–

SMILES,Emax (%),pEC50,EC50 (read-out: EC50) [nM],EC50 [nM]
O=C1c2ncccc2CN1Cc1ccc(-c2cnc3ccccc3c2)cc1F [Example B66],52,5.84,1440,–
O=C1c2ncccc2CN1Cc1ccc(-c2cccnc2)cc1Cl [Example B67],56,5.28,5250,–
O=C1c2ncccc2CN1Cc1ccc(-c2ccncc2)cc1Cl [Example B68],56,<5.00,> 10000,–
O=C1c2ncccc2CN1Cc1ccc(-c2ccc3cnccc3c2)cc1Cl [Example B69],52,5.87,1350,–
O=C1c2ncccc2CN1Cc1ccc(-c2ccc3ccncc3c2)cc1F [Example B70],59,5.68,2090,–
Cn1cc2cc(-c3ccc(CN4Cc5cccnc5C4=O)c(F)c3)ccc2n1 [Example B71],72,6.15,708,–
Cn1cc2ccc(-c3ccc(CN4Cc5cccnc5C4=O)c(F)c3)cc2n1 [Example B72],79,5.70,2000,–
O=C1c2ncccc2CN1Cc1ccc(-c2cncc(Cl)c2)cc1F [Example B73],38,<5.00,> 10000,–
CN(C)c1ccc(-c2ccc(CN3Cc4cccnc4C3=O)c(Cl)c2)cn1 [Example B74],58,5.73,1860,–
Cc1cc(-c2ccc(CN3Cc4cccnc4C3=O)c(Cl)c2)cnc1Cl [Example B75],42,5.70,2000,–
COc1ccc(-c2ccc(CN3Cc4cccnc4C3=O)c(Cl)c2)cc1 [Example B76],35,5.83,1480,–
O=C1c2ncccc2CN1Cc1ccc(-c2cccc3ncccc23)cc1F [Example B77],42,5.74,1820,–
CN(C)c1ccc(-c2ccc(CN3Cc4cccnc4C3=O)c(F)c2)cn1 [Example B78],48,5.90,1260,–
O=C1c2ncccc2CN1Cc1ccc(-c2ccc3cnccc3c2)cc1F [Example B79],62,5.83,1480,–
O=C1c2cccnc2CN1Cc1c(F)cc(-c2ccc3nccn3c2)cc1F [Example B80],57,6.07,851,–
Cn1cc2c(-c3cc(F)c(CN4Cc5ncccc5C4=O)c(F)c3)cccc2n1 [Example B81],80,6.80,158,–
Cn1cnc2ccc(-c3cc(F)c(CN4Cc5ncccc5C4=O)c(F)c3)cc21 [Example B82],72,6.40,398,–
Cc1cc(-c2cnc(Cl)c(C)c2)ccc1CN1Cc2cccnc2C1=O [Example B83],34,<5.00,> 10000,–
Cc1cc(-c2ccncc2)ccc1CN1Cc2cccnc2C1=O [Example B84],41,<5.00,> 10000,–
Cc1cc(-c2cccnc2)ccc1CN1Cc2cccnc2C1=O [Example B85],41,<5.00,> 10000,–
